From patent publication US11680056B2, “MK2 inhibitors and uses thereof” (Xinthera, Inc., priority 2021, dated 2023)
Like-named read-outs stand apart in the source and are kept apart here.

Key:
[1] = biological target: p38a/MK2 (Homo sapiens (Human), UniProt P49137+Q16539); assay: p38a/MK2 biochemical assay: activation of MK2 by p38, FITC-HSP27 peptide phosphorylation (IMAP FP); conditions: 10-point 1:3 dilution, 60 pM active p38a, 1 nM inactive MK2, 10 μM ATP, 2 h incubation
Description: (§1) Expression vectors of the recombinant MK2 and PRAK kinases were constructed by cloning of the codon optimized gene sequences of MK2 (Uniprot ID P49137, amino acid fragment F46-H400), or PRAK (Uniprot ID Q81W41, amino acid fragment M1-Q471) into pGEX-4T1 (GE) for over expression of these kinases with N-terminal GST-tag. Protein expression was carried out in E. coli BL21 by growing the hosts in TB medium, induction of protein expression with 0.5 mM IPTG at approximate 0.8 OD600, and incubation of the cultures at 18° C. for 14-20 hours afterwards. The harvested cells were resuspended in […] of Lysis buffer (50 mM Tris-HCl, pH 8.0, 500 mM NaCl, 1 mM DTT, 5% glycerol, and 1 mM PMSF) per gram of wet cell mass and homogenized at 4° C. in a microfluidizer (ATS, Suzhou, China) at 14,000 psi pressure, 3 passes. The cell lysates were clarified by centrifugation and the supernatants containing the GST-fusion proteins were purified by affinity chromatography using GSH-Sepharose (GE) gravity flow columns pre-equilibrated in Buffer A (50 mM Tris-HCl, pH 8.0, 500 mM NaCl, 1 mM DTT, and 5% glycerol). After thorough washing of the columns with Buffer A, the bound GST-proteins were eluted by Buffer B (50 mM Tris, pH 8.0, 500 mM NaCl, 1 mM DTT, 5% glycerol, 10 mM glutathione), followed by size-exclusion purification on Superdex 200 column equilibrated in Buffer A. The purified proteins were concentrated to approximately 1 mg/ml and stored at −80° C.
This study evaluates the inhibitory potency of invention compound on p38/MK2 pathway vs p38/PRAK pathway. More specially the compound concentration (IC50) was determined that inhibited half of the maximal activation of MK2 or PRAK by p38. MK2 activation study was set up without or with a serial of 10-point 1:[…], and PRAK activation study was set up without or with a serial of 10-point 1:3 dilution of invention compound at top dose of 300 μM. The MK2 and PRAK activity were determined by the phosphorylation level of HSP27 peptide conjugated with FITC.
(§2) After 2 h incubation of the reaction mixture with various concentration of invention compound (200 nL), 60 μL 1×IMAP solution Mixture (Molecular Devices, Cat R8127) was added to the reaction mixture and incubated for another half hour. The signal was then read by Synergy™ Neo2 Multi-Mode Microplate Reader with filter setting (Ex/Em=485 nm/FITC FP-P pol 528 nm & FITC FP-S pol 528 nm)
(§3) The signal was then normalized to vehicle control and fitted in Xfit to generate IC50. The selectivity of MK2 over PRAK was calculated by the formular Selectivity=IC50 of PRAK/IC50 of MK2.

[2] = biological target: p38a/PRAK (Homo sapiens (Human), UniProt Q16539); assay: p38a/PRAK biochemical assay: activation of PRAK by p38, FITC-HSP27 peptide phosphorylation (IMAP FP); conditions: 10-point 1:3 dilution, top dose 300 μM, 60 pM active p38a, 1 nM inactive PRAK, 10 μM ATP, 2 h incubation; for IC50: read-out: p38a/PRAK Enzyme pIC50 (converted)
p38a/PRAK, sequence (Q16539 whole entry): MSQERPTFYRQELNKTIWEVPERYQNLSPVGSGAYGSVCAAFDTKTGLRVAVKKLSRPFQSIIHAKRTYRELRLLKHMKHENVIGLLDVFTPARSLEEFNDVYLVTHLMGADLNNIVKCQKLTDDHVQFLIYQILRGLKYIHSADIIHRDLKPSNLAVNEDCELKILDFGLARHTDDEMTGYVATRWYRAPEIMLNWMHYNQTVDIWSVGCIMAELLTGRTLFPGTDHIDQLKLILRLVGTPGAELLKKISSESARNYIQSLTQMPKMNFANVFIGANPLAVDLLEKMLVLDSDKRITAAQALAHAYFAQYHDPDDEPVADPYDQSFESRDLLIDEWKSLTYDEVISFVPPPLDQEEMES
Description: as §1
This study evaluates the inhibitory potency of invention compound on p38/MK2 pathway vs p38/PRAK pathway. More specially the compound concentration (IC50) was determined that inhibited half of the maximal activation of MK2 or PRAK by p38. MK2 activation study was set up without or with a serial of 10-point 1:3 dilution of invention compound at top dose of […], and PRAK activation study was set up without or with a serial of 10-point 1:3 dilution of invention compound at top dose of 300 μM. The MK2 and PRAK activity were determined by the phosphorylation level of HSP27 peptide conjugated with FITC.
as §2, §3

[3] = top dose 1 μM, read-out: p38a/MK2 (1 μM) Enzyme pIC50 (converted)
[4] = top dose 10 μM, read-out: p38a/MK2 (10 μM) Enzyme pIC50 (converted)

p38a/MK2, sequence (P49137 46-400): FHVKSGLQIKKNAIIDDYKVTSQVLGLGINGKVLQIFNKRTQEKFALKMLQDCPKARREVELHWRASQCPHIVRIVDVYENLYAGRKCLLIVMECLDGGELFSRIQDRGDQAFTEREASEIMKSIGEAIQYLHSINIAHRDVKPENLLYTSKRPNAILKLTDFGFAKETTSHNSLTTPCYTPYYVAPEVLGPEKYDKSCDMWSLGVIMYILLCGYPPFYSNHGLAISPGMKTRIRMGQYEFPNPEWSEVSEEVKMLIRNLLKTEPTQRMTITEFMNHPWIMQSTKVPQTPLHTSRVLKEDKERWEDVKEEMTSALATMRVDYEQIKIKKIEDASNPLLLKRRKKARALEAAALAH
p38a/MK2, sequence (Q16539 whole entry, the tested form may be a part): as the sequence (Q16539 whole entry) above

Row | IC50 [1, 3] | IC50 [2] | p38a/MK2 (10 μM) Enzyme pIC50 ([1]; top dose 10 μM) | p38a/PRAK Enzyme pIC50 [2] | IC50 [1, 4] | Compound
1 | > 1000 nM | > 316000 nM | – | – | – | Cc1cnc(-c2ccnc(C(O)C3CC3)n2)cc1-n1c(C)cc(OCc2ncc(F)cc2F)c(Cl)c1=O (single isomer, unassigned) [Example 35C, rel-3-chloro-2′-{2-[cyclopropyl(hydroxy)methyl]pyrimidin-4-yl}-4-[(3,5-difluoropyridin-2-yl)methoxy]-5′,6-dimethyl-[1,4′-bipyridin]-2-one]
2 | 20 nM | 6310 nM | – | – | – | Cc1cnc(-c2ccc3c(n2)C(C)(O)CC3)cc1-n1c(C)cc(OCc2ncc(F)cc2F)c(Cl)c1=O (single isomer, unassigned) [Example 32A]
3 | 12.6 nM | 10000 nM | – | – | – | Cc1cnc(-n2ccc(C(C)(C)O)n2)c(C)c1-n1c(C)cc(OCc2ncc(F)cc2F)c(Cl)c1=O (single isomer, unassigned) [Example 50A, rel-3-chloro-4-[(3,5-difluoropyridin-2-yl)methoxy]-2′-[3-(2-hydroxypropan-2-yl)pyrazol-1-yl]-3′,5′,6-trimethyl-[1,4′-bipyridin]-2-one]
4 | – | – | <5.0 | <3.5 | – | Cc1cnc(-c2ccc3c(n2)[C@@H](O)CC3)cc1-n1c(C)cc(OCc2ncc(F)cc2F)c(Cl)c1=O (single isomer, unassigned) [Example 18C]
5 | 1.58 nM | 6310 nM | – | – | – | Cc1cnc(-c2ccc(F)c(C(C)(C)O)n2)cc1-n1c(C)cc(OCc2ncc(F)cc2F)c(Cl)c1=O (single isomer, unassigned) [Example 24A, rel-3-chloro-4-[(3,5-difluoropyridin-2-yl)methoxy]-1-[5′-fluoro-6′-(2-hydroxypropan-2-yl)-5-methyl-[2,2′-bipyridin]-4-yl]-6-methylpyridin-2-one]
6 | 6.31 nM | 3160 nM | – | – | – | Cc1cnc(-c2ccnc(C(C)(C)O)n2)c(C)c1-n1c(C)cc(OCc2ncc(F)cc2F)c(Cl)c1=O (single isomer, unassigned) [Example 49A, rel-3-chloro-4-((3,5-difluoropyridin-2-yl)methoxy)-2′-(2-(2-hydroxypropan-2-yl)pyrimidin-4-yl)-3′,5′,6-trimethyl-2H-[1,4′-bipyridin]-2-one]
7 | > 10 nM | 126000 nM | – | – | – | [2H]C([2H])(Oc1cc(C)n(-c2c(C)cnc(-c3ccnc(C(C)(C)O)n3)c2F)c(=O)c1Cl)c1ncc(F)cc1F (single isomer, unassigned) [Example 57B, rel-3-chloro-4-[(3,5-difluoropyridin-2-yl)(2H2)methoxy]-3′-fluoro-2′-[2-(2-hydroxypropan-2-yl)pyrimidin-4-yl]-5′,6-dimethyl-[1,4′-bipyridin]-2-one]
8 | > 100 nM | > 316000 nM | – | – | – | [2H]C([2H])(Oc1cc(C)n(-c2cc(-c3ccnc(C(C)(C)O)c3F)ncc2C)c(=O)c1Cl)c1ncc(F)cc1F (single isomer, unassigned) [Example 64B, rel-3-chloro-4-[(3,5-difluoropyridin-2-yl)(2H2)methoxy]-1-[3′-fluoro-2′-(2-hydroxypropan-2-yl)-5-methyl-[2,4′-bipyridin]-4-yl]-6-methylpyridin-2-one]
9 | 501 nM | 39800 nM | – | – | – | Cc1ncc(-c2ccnc(C(C)(C)O)n2)cc1-n1c(C)cc(OCc2ncc(F)cc2F)c(Cl)c1=O (single isomer, unassigned) [Example 45B, rel-3-chloro-4-[(3,5-difluoropyridin-2-yl)methoxy]-5′-[2-(2-hydroxypropan-2-yl)pyrimidin-4-yl]-2′,6-dimethyl-[1,3′-bipyridin]-2-one]
10 | – | > 316000 nM | – | – | > 10000 nM | Cc1cnc(-c2ccc3c(n2)[C@@H](O)CC3)cc1-n1c(C)cc(OCc2ncc(F)cc2F)c(Cl)c1=O (single isomer, unassigned) [Example 18B]
11 | – | > 316000 nM | – | – | > 10000 nM | Cc1cnc(COc2cc(C)n(-c3cc(-c4ccnc(C(C)(C)O)n4)ncc3C)c(=O)c2Cl)c(F)c1 (single isomer, unassigned) [Example 23B, rel-3-chloro-4-[(3-fluoro-5-methylpyridin-2-yl)methoxy]-2′-[2-(2-hydroxypropan-2-yl)pyrimidin-4-yl]-5′,6-dimethyl-[1,4′-bipyridin]-2-one]
12 | – | > 316000 nM | – | – | 1580 nM | Cc1cnc(-c2ccnc(C3CC(O)C3)n2)cc1-n1c(C)cc(OCc2ncc(F)cc2F)c(Cl)c1=O (single isomer, unassigned) [Example 26B, rel-3-chloro-4-((3,5-difluoropyridin-2-yl)methoxy)-2′-(2-(3-hydroxycyclobutyl)pyrimidin-4-yl)-5′,6-dimethyl-2H-[1,4′-bipyridin]-2-one]
13 | 0.316 nM | 316 nM | – | – | – | Cc1cnc(-c2cccc(C(C)(C)O)n2)c(F)c1-n1c(C)cc(OCc2ncc(F)cc2F)c(Cl)c1=O (single isomer, unassigned) [Example 63B, rel-3-chloro-4-[(3,5-difluoropyridin-2-yl)methoxy]-1-[3-fluoro-6′-(2-hydroxypropan-2-yl)-5-methyl-[2,2′-bipyridin]-4-yl]-6-methylpyridin-2-one]
14 | 5.01 nM | 3160 nM | – | – | – | Cc1cnc(-c2ccnc(C3(O)CCC3)n2)cc1-n1c(C)cc(OCc2ncc(F)cc2F)c(Cl)c1=O (single isomer, unassigned) [Example 41A, rel-3-chloro-4-[(3,5-difluoropyridin-2-yl)methoxy]-2′-[2-(1-hydroxycyclobutyl)pyrimidin-4-yl]-5′,6-dimethyl-[1,4′-bipyridin]-2-one]
15 | 5.01 nM | 10000 nM | – | – | – | Cc1cnc(-c2ccnc([C@](C)(O)C3CC3)n2)cc1-n1c(C)cc(OCc2ncc(F)cc2F)c(Cl)c1=O (single isomer, unassigned) [Example 6B, rel-3-chloro-2′-[2-(1-cyclopropyl-1-hydroxyethyl)pyrimidin-4-yl]-4-[(3,5-difluoropyridin-2-yl)methoxy]-5′,6-dimethyl-[1,4′-bipyridin]-2-one]
16 | – | > 316000 nM | – | – | > 10000 nM | CCc1cnc(-c2ccnc(C(C)(C)O)n2)cc1-n1c(C)cc(OCc2ncc(F)cc2F)c(Cl)c1=O (single isomer, unassigned) [Example 29B, rel-3-chloro-4-((3,5-difluoropyridin-2-yl)methoxy)-5′-ethyl-2′-(2-(2-hydroxypropan-2-yl)pyrimidin-4-yl)-6-methyl-2H-[1,4′-bipyridin]-2-one]
17 | 1 nM | 316 nM | – | – | – | [2H]C([2H])(Oc1cc(C)n(-c2c(C)cnc(-c3ccnc(C(C)(C)CO)n3)c2F)c(=O)c1Cl)c1ncc(F)cc1F (single isomer, unassigned) [Example 59B, rel-3-chloro-4-((3,5-difluoropyridin-2-yl)methoxy-d2)-3′-fluoro-2′-(2-(1-hydroxy-2-methylpropan-2-yl)pyrimidin-4-yl)-5′,6-dimethyl-2H-[1,4′-bipyridin]-2-one]
18 | 2 nM | 2000 nM | – | – | – | [2H]C([2H])(Oc1cc(C)n(-c2cc(-c3ccnc(C(C)(C)O)c3F)ncc2C)c(=O)c1Cl)c1ncc(F)cc1F (single isomer, unassigned) [Example 64A, rel-3-chloro-4-[(3,5-difluoropyridin-2-yl)(2H2)methoxy]-1-[3′-fluoro-2′-(2-hydroxypropan-2-yl)-5-methyl-[2,4′-bipyridin]-4-yl]-6-methylpyridin-2-one]
